Among the data in US11572590B2, “Methods for evaluating tumor cell spheroids using 3D microfluidic cell culture device” (Dana-Farber Cancer Institute, Inc., priority 2017, dated 2023) are inhibition values, retold here.

What all share (test): SelectScreen Kinase Profiling, single point inhibition and IC50 for off-target kinases
What all share (type): biochemical

The target of assay [1] is T1, off-target kinases (Homo sapiens, UniProt Q9UQB9).
T1 sequence (Q9UQB9 1-309): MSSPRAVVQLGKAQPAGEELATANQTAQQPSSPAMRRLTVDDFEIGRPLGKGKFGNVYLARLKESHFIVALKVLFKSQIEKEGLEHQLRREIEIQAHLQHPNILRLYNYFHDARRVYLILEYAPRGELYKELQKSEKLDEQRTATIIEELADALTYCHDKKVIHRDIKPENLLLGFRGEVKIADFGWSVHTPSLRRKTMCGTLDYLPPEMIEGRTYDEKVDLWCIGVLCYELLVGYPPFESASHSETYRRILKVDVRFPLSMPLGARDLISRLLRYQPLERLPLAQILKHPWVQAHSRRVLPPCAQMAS
Conditions: AURKC (Aurora C), ZLYTE, ATP Km app.

Assay [2] addresses off-target kinases (Homo sapiens, UniProt Q9Y5S2). The conditions noted are these: CDC42 BPB (MRCKB), ZLYTE, ATP Km app.
In assay [3] the target is off-target kinases (Homo sapiens, UniProt P16234). Conditions: PDGFRA (PDGFR alpha), ATP Km app, ZLYTE.
Assay [4] concerns the target T2, off-target kinases (Homo sapiens, UniProt P53778).
T2 sequence (P53778 1-367): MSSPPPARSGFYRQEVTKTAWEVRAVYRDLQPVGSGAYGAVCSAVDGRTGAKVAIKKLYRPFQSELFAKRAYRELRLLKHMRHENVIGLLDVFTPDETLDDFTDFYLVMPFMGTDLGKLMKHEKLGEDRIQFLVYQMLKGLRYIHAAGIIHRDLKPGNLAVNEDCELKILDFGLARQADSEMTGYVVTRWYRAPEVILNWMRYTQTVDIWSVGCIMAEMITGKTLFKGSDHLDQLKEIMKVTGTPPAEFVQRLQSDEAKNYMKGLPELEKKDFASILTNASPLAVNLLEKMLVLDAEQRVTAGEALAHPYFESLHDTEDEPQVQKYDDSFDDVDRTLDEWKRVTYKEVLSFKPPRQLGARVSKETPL
Conditions: MAPK12 (p38 gamma), ZLYTE, ATP Km app.

Assay [5] addresses off-target kinases (Homo sapiens, UniProt Q06187). Conditions: BTK, ZLYTE, ATP Km app.
Assay [6] has as its target off-target kinases (Homo sapiens, UniProt P22607, K650M). Conditions: FGFR3 K650M, mutant y, LanthaScreen Binding. In general terms: In TR-FRET formats the signal depends on donor and acceptor labels being close together.
In assay [7] the target is off-target kinases (Homo sapiens, UniProt P17252). The conditions noted are these: PRKCA (PKC alpha), ZLYTE, ATP Km app.

The structures appear in SMILES notation. Like-named read-outs stand apart in the source and are kept apart here.

Chain of off-target kinases (Homo sapiens, UniProt Q06187) (Q06187 whole entry): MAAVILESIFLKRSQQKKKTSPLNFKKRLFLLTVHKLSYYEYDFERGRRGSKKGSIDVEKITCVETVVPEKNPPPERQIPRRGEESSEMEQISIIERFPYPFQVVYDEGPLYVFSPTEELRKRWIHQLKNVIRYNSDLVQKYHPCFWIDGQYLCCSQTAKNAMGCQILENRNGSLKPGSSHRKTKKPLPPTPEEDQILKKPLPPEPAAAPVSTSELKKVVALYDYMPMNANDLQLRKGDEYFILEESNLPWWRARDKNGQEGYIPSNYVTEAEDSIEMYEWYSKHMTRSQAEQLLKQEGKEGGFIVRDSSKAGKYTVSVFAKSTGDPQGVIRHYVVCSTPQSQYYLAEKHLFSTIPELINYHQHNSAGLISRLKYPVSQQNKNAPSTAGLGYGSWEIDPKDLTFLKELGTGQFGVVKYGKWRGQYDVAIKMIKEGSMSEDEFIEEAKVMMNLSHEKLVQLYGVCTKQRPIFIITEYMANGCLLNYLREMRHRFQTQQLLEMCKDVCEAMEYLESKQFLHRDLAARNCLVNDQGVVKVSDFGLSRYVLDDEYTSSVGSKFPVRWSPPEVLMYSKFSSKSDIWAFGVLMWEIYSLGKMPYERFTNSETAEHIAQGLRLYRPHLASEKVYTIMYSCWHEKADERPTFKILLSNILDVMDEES
Chain of off-target kinases (Homo sapiens, UniProt Q9Y5S2) (Q9Y5S2 whole entry): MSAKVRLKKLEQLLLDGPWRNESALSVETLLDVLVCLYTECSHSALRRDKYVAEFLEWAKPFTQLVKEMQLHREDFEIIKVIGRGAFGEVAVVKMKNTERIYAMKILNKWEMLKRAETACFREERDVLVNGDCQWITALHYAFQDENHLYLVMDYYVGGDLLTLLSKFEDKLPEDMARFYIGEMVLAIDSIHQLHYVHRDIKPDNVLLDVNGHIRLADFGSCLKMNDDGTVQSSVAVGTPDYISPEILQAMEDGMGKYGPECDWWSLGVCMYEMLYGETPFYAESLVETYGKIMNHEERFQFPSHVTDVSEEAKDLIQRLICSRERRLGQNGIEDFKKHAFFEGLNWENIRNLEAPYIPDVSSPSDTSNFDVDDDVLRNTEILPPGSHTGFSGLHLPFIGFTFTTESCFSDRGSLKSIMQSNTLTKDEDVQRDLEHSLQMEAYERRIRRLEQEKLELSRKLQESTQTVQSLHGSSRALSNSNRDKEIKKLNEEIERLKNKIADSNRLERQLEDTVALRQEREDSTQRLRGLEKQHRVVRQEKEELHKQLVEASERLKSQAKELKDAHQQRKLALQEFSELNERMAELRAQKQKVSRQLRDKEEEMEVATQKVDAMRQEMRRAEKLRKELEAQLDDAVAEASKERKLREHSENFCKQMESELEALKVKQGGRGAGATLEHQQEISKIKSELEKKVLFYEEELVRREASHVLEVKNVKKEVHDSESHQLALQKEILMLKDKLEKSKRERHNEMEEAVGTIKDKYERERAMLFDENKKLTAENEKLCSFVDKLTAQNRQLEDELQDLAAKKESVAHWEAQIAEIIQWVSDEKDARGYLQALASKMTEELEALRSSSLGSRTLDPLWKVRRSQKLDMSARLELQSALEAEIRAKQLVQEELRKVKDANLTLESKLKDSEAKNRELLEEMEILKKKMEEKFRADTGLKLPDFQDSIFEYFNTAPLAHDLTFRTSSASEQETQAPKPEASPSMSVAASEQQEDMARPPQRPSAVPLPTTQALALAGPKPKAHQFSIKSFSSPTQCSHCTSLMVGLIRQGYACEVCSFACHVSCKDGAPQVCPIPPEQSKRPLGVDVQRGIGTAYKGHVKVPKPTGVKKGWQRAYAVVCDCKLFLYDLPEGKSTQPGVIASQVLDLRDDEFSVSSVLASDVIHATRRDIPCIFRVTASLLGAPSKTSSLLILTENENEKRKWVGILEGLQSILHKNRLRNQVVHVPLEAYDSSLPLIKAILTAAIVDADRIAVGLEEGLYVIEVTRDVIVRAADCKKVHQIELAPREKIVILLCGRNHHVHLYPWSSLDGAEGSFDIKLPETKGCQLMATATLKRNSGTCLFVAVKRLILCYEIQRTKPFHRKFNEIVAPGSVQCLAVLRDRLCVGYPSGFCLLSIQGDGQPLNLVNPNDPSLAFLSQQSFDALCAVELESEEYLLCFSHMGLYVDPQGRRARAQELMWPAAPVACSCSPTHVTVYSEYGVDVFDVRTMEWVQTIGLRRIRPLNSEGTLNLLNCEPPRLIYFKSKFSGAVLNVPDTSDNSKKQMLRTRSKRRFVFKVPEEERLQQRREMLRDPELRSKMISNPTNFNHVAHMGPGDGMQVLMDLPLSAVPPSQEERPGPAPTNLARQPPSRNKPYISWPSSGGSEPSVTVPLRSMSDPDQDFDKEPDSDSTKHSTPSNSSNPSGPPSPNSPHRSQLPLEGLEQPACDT
Chain of off-target kinases (Homo sapiens, UniProt P22607, K650M) (P22607 23-806 K650M): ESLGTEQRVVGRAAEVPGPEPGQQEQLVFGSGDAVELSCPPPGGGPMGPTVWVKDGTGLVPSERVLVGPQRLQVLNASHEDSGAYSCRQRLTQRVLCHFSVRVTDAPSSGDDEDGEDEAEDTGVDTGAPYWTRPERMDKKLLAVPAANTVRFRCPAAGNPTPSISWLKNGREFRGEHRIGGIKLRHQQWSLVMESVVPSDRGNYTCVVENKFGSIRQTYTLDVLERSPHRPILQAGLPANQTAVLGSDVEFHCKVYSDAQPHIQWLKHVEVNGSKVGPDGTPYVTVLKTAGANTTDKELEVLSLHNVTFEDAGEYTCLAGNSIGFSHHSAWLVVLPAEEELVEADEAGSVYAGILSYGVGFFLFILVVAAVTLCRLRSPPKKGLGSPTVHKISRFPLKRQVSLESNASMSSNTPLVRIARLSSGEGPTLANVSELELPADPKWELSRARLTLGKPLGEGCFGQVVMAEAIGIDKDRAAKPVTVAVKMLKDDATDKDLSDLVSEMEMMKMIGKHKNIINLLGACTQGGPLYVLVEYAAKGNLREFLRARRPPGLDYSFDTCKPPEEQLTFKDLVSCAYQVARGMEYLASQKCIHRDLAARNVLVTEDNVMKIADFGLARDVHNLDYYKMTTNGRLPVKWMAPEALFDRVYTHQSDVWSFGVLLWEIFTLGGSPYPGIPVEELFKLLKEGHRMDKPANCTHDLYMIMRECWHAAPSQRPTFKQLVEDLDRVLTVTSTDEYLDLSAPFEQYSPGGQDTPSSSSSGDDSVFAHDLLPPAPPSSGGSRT
Chain of off-target kinases (Homo sapiens, UniProt P16234) (P16234 24-1089): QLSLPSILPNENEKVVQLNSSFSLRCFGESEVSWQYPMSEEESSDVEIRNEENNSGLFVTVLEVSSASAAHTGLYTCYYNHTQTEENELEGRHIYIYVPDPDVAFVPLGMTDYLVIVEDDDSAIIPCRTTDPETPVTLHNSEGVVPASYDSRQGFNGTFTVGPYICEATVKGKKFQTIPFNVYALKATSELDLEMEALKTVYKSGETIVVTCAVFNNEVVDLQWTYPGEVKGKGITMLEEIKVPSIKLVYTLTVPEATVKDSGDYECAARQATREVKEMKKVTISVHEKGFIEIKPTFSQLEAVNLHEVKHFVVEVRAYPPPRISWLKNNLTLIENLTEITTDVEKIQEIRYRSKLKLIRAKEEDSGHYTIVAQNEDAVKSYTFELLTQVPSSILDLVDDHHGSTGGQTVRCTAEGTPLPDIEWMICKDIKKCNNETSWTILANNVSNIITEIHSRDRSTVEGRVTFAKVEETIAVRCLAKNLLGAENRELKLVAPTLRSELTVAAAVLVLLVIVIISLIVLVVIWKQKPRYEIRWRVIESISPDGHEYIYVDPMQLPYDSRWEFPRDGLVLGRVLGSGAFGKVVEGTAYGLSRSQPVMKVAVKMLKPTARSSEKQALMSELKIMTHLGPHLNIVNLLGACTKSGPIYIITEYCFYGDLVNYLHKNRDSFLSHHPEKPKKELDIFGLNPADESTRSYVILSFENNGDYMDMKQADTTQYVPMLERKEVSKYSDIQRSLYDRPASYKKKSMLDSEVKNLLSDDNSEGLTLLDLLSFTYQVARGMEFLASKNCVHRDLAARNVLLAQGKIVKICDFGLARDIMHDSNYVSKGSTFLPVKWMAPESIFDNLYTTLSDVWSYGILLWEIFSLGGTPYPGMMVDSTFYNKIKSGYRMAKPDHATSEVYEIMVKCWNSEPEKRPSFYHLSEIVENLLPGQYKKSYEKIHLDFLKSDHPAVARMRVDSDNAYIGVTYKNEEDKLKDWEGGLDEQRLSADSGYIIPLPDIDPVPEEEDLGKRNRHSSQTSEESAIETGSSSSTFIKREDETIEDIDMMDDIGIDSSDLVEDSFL

Regarding `N#Cc1cc(-c2ncnc(Nc3ccc(N4CCN(C5COC5)CC4)cc3)n2)ccc1OC1CCOCC1` [Compound 1, 5-(4-((4-(4-(oxetan-3-yl)piperazin-1-yl)phenyl)amino)-1,3,5-triazin-2-yl)-2-((tetrahydro-2H-pyran-4-yl)oxy)benzonitrile], the inhibition (usually the relative decrease from the control value, in per cent) was found to be 23% at off-target kinases [1] (read-out: % Inhibition 1); 23% on off-target kinases [1] (read-out: % Inhibition 2); 23% on off-target kinases [1] (read-out: % Inhibition Avg); 6% at off-target kinases [2] (read-out: % Inhibition 1); 13% on off-target kinases [2] (read-out: % Inhibition 2); 10% on off-target kinases [2] (read-out: % Inhibition Avg). Besides, the inhibition at off-target kinases [3] (read-out: % Inhibition 1) is 43%; on off-target kinases [3] (read-out: % Inhibition 2) it was 43%; on off-target kinases [3] (read-out: % Inhibition Avg), 43%; at off-target kinases [4] (read-out: % Inhibition 1), 4%; on off-target kinases [4] (read-out: % Inhibition 2), 3%; at off-target kinases [4] (read-out: % Inhibition Avg), 3%. The inhibition on off-target kinases [5] (read-out: % Inhibition 1) came to 3%; at off-target kinases [5] (read-out: % Inhibition 2) it was 6%; on off-target kinases [5] (read-out: % Inhibition Avg) it was 5%; on off-target kinases [6] (read-out: % Inhibition 1) it was 33%; at off-target kinases [6] (read-out: % Inhibition 2), 38%; at off-target kinases [6] (read-out: % Inhibition Avg), 35%. The figures for the inhibition on off-target kinases [7] (read-out: % Inhibition 1), at off-target kinases [7] (read-out: % Inhibition 2) and at off-target kinases [7] (read-out: % Inhibition Avg) were 0%, -5% and -2%, respectively.
